Patent EP3797781A1, “USE OF EC-7072 AND SYNERGIC COMPOSITIONS THEREOF IN TREATMENT OF CHRONIC LYMPHOCYTIC LEUKEMIA” (priority 2019, dated 2021)

Experiments:
Type in all cases: cell-based, human
[1] = test system: primary fibroblasts from healthy donors; experiment: Cell death of primary fibroblasts by PI staining; conditions: 200 nM, 24 hours; n = 4
Description: Effectiveness of EC-7072 against different B-cell malignancies was assessed by; • (i) incubating primary fibroblasts from healthy donors (n = 4) and HK-2 cells from healthy human adult kidney (n = 3) following treatment with MTA (200 nM) or EC-7072 (200 nM) for 24 hours. Cell death was evaluated by PI staining to obtain the percentages corresponding to the [PI^+] subset (Figure 5A) and the mean percentage of [PI^+] cells (Figure 5B); • (ii) treating MEC-1, GRANTA-519, Z-138, JVM-2, CA-46, Ramos, Raji and U266 cell lines (n = 3) following treatment with EC-7072 (500 nM) followed by incubation for 24 hours. Cell viability was assessed by DiOC6(3)/PI staining and normalized to control (DMSO) condition to obtain mean percentage of viable [DiOC6(3)^+] cells (Figure 5C).

BCL2 = BCL2 levels by intracellular flow cytometry in isolated CLL cells; conditions: 200 nM, 12 and 18 hours; isolated CLL cells (n = 6)
Description: The dysregulation of BCL2 expression in primary CLL by EC-7072 was evaluated by: • (i) incubating isolated CLL cells (n = 6) from patients with CLL following treatment with EC-7072 (200 nM) for 6 hours and extracting total RNA. Relative expression of BLC2 was determined by qPCR to obtain the mean relative expression to the control (DMSO) condition (Figure 6F); • (ii) incubating isolated CLL cells (n = 6) following treatment with 200 nM EC-7072 for 12 and 18 hours. BCL2 levels were evaluated by intracellular flow cytometry (Figure 6G); • (iii) incubating isolated T cells (n = 3) from patients with CLL following treatment with EC-7072 (200 nM) for 6 hours and extracting total RNA. Relative expression of BLC2 was determined by qPCR to obtain the mean relative expression to the control (DMSO) condition (Figure 6H); • (iv) incubating PBMCs (Figure 6I) and isolated T cells (Figure 6J) from patients with CLL (n = 3) following treatment with 200 nM EC-7072 for 24 hours. T-cell death and apoptosis were assessed by DiOC6(3)/PI staining to obtain percentages of viable [DiOC6(3)^+] cells and the mean percentages of apoptotic [DiOC6(3)^low PI^-] and dead [PI^+] cells.

BCR signaling pathway = experiment: Phosphoflow of BCR signaling nodes in isolated leukemia cells
Description: Protein phosphorylation levels were evaluated by phosphoflow. Briefly, isolated leukemia cells from patients with CLL were treated with 200 nM EC-7072 or DMSO for 8 or 12 hours. In some experiments, BCR signaling was activated with goat F(ab')2 anti-IgM antibody (10 µg/mL; SouthernBiotech) for 45 minutes. Right afterwards, cells were fixed with 1.8% paraformaldehyde for 10 minutes at RT and permeabilized with 90% ice-cold methanol for 25 minutes at 4 °C. Finally, cells were incubated with specific phospho-antibodies (p-SYK, p-BTK, p-ERK1/2 and p-H2AX from Biolegend, and p-PLCγ2, p-AKT, p-p65 NF-κB and p-STAT3 from BD Bioscience) for 30 minutes at RT and mean fluorescence intensity (MFI) was analyzed by flow cytometry.
The inhibition of the tonic BCR pathway by EC-7072 was evaluated by: • (i) incubating PBMCs from patients with CLL, following treatment with 200 nM EC-7072, for 8 hours. Surface expression of CD79A (Figure 7A), CD79B (Figure 7B) and IgM (Figure 7C) in leukemia cells (n = 5 - 6) was assessed by flow cytometry and the MFI was normalized to the control (DMSO) condition; • (ii) incubating isolated leukemia cells from patients with CLL (n = 10), following treatment with EC-7072 (200 nM), for 8 hours. Phosphorylation levels of p-SYK (Figure 7D), p-BTK (Figure 7E) and p-PLCy2 (Figure 7F) proteins and p-ERK1/2 (Figure 7G), p-AKT (Figure 7H), p-p65 NPκB (Figure 7I) and p-STAT3 (Figure 7J) were evaluated by phosphoflow and the MFI was normalized to the control (DMSO) from each individual patient; • (iii) incubating PBMCs from patients with CLL (n = 8), following treatment with EC-7072 (200 nM), for 8 hours. Viability was determined by DiOC6(3)/PI staining and normalized to the control (DMSO) condition for each individual patient to obtain the mean percentage of viable [DiOC6(3)^+] cells (Figure 7K); • (iv) incubating isolated CLL cells (n = 4) stimulated with CD40L (100 ng/mL) or IL-6 (40 ng/mL) for 15 minutes and detecting respective phosphorylation levels of p65 NF-κB (Figure 7L) and STAT3 (Figure 7M) by phosphoflow to obtain the mean MFI normalized to the control (DMSO) condition for each individual patient; • (v) incubating isolated leukemia cells from 3 patients with CLL, following treatment with 200 nM EC-7072, for 3, 8 and 12 hours. […]
The partial abrogation of EC-7072-induced cell death of primary CLL cells by activation of the BCR was evaluated by: • (i) incubating PBMCs from patients with CLL (n = 15), following treatment with EC-7072 (200 nM) in combination with α-IgM (10 µg/mL), for 24 hours. […]

## CO[C@@H]([C@@H]1Cc2cc3cc(O[C@H]4C[C@@H](O[C@H]5C[C@@H](O)[C@H](O)[C@@H](C)O5)[C@H](O)[C@@H](C)O4)c(C)c(O)c3c(O)c2C(=O)[C@H]1O[C@H]1C[C@@H](O[C@H]2C[C@@H](O[C@H]3C[C@](C)(O)[C@H](O)[C@@H](C)O3)[C@@H](O)[C@@H](C)O2)[C@H](O)[C@@H](C)O1)[C@@H](O)C(C)=O [EC-7072, mithramycin SK]
[1]
  viability of primary human fibroblasts (PI^+ cells): did not markedly affect the viability
BCL2
  protein levels of BCL2: mild, but significant, decrease
BCR signaling pathway; 200 nM, 8 hours, n = 10
  amounts of p-AKT: No marked changes
  levels of phosphorylated (p)-SYK, p-BTK and p-PLCγ2: significant reduction
  phosphorylation levels of ERK1/2, p65 NF-κB and STAT3: significant downregulation
BCR signaling pathway; EC-7072 200 nM 8 hours, then α-IgM (10 µg/mL) 15 minutes
  phosphorylation of ERK1/2, AKT, p65 NF-κB and STAT3 ensued by anti-IgM: not significantly reverted
